Where a name gives a salt, the structure may show the parent alone.

The target in data set [1] is T1, type α4β2 central nicotinic receptors (Rattus norvegicus, UniProt P09483+P12390).
T1 construct: from tissue; host or cells: rat brain membranes
Kind of data set: Displacement of binding of [3H]-cytisine to type α4β2 nicotinic receptors of rat brain. The conditions noted are these: rat brain membranes, read-out: Affinity (Ki, nM) for type α4β2 receptors. As to the method:
This study, carried out according to the technique described in Molec. Pharmacol., 1990, 39; 9-12, is aimed at determining the affinity of compounds of the present invention for type […] central nicotinic receptors.
Membranes (250 μg/ml) of rat brain are incubated (2 hours, 20° C.) in the presence of a series of concentrations (0.01-10 μM) of each compound of the present invention (diluted starting from a 10 mM stock solution in DMSO) and [^3H]-cytisine (S.A.: 1184 GBq/mmol: 2 nM) in phosphate buffer (NaH2PO4 20 mM, pH 7.4); final volume: 250 μl. The non-specific binding is determined by incubating membranes in the presence of 10 μM of (−)nicotine. The affinity of the compounds of the present invention for type α4β2 central nicotinic receptors is characterised by determination of the Ki.

T1 sequence (P09483 31-630): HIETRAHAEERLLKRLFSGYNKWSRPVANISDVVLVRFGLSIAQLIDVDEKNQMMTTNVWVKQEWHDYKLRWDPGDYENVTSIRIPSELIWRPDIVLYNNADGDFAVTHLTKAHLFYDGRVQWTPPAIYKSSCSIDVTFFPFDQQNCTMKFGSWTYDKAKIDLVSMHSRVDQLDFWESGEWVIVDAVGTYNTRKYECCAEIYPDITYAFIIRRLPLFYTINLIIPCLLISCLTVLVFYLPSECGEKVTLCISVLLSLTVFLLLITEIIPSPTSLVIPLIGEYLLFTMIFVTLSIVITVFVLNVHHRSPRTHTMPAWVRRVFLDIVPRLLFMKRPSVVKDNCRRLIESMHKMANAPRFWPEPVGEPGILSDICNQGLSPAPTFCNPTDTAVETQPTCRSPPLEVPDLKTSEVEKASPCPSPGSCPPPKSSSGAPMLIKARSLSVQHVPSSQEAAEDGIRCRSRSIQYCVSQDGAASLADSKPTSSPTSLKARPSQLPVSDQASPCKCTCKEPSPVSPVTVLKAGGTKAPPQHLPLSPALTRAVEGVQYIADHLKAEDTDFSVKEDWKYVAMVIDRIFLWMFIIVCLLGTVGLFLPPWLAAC
T1 sequence (P12390 25-500): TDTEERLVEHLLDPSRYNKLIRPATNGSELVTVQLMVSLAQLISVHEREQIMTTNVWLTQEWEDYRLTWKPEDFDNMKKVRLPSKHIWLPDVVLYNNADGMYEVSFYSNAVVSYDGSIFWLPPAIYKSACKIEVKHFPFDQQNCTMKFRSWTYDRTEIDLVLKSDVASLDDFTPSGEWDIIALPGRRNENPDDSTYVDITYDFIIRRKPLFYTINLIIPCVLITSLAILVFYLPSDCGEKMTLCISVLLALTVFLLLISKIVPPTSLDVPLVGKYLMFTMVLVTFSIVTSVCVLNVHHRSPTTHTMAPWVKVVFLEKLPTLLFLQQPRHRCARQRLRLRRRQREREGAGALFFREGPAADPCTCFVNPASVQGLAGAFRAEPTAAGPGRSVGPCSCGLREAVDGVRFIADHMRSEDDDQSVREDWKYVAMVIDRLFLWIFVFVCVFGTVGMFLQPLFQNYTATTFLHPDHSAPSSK

Usually melting point stands for the temperature of the solid-liquid transition. `CNC1(CNc2cnc(Cl)c(-c3cccnc3)c2)CC1.Cl.Cl.Cl` registered a melting point of 180 to 185 °C. In turn, `CNC1(CNc2cnc(Cl)c(-c3cccc(C(=O)O)c3)c2)CC1.Cl.Cl` had a melting point of 140 to 145 °C. As to `CNC1(CNc2cnc(Cl)c(-c3ccc(C(=O)O)cc3)c2)CC1.Cl.Cl`, the melting point is 175 to 182 °C. The same measure, in the same setting: for `CNC1(CNc2cnc(Cl)c(-c3ccc(N)cc3)c2)CC1.Cl.Cl` the value was 190 to 196 °C; for `CNC1(CN(C)c2cnc(Cl)c(-c3ccc(C(=O)O)cc3)c2)CC1.Cl.Cl`, 138 to 145 °C.

`CNC1(CN(C)c2cnc(Cl)c(-c3ccncc3)c2)CC1.Cl.Cl` had a melting point of 110 to 120 °C. As to `CNC1(CNc2cnc(C)c(-c3ccc(C(=O)O)cc3)c2)CC1.Cl.Cl`, the melting point is 241 to 245 °C.

`CNC1(CNc2cnc(C)c(-c3ccncc3)c2)CC1.Cl.Cl.Cl` had a melting point of 240 to 248 °C.

On to `CNC1(CNc2cnc(C)c(-c3ccc(N)cc3)c2)CC1.Cl.Cl.Cl`, for which the melting point was in the range of 190 to 200 °C. On to `CNC1(CN(C)c2cnc(C)c(-c3ccncc3)c2)CC1.Cl.Cl.Cl`, for which the melting point was in the range of 182 to 187 °C. Same read-out and setting: for `CNC1(CN(C)c2cnc(C)c(-c3ccc(N)cc3)c2)CC1.Cl.Cl.Cl` the value was 235 to 240 °C; for `Cl.NCC1(COc2cnc(Cl)c(-c3ccc([N+](=O)[O-])cc3)c2)CC1`, 145 to 150 °C; for `CNC1(COc2cnc(Cl)c(-c3ccc(CO)cc3)c2)CC1.Cl.Cl`, 142 to 146 °C. On the same count and under the same terms, for `Cc1ncc(OCC2(CN)CC2)cc1-c1ccc(Cl)cc1.Cl.Cl` the value was 194 to 199 °C; for `Cc1ncc(OCC2(CN)CC2)cc1-c1cccc(Cl)c1.Cl.Cl`, 223 to 227 °C; for `CNC1(COc2cnc(C)c(-c3cccc(C#N)c3)c2)CC1.Cl.Cl`, 238 to 242 °C. `CNC1(COc2cnc(C)c(-c3ccc(C#N)cc3)c2)CC1.Cl.Cl`: the melting point was 220 to 224 °C. As to `CNC1(COc2cncc(-c3cccc(C#N)c3)c2)CC1.Cl.Cl`, the melting point is 110 to 120 °C. The same measure, in the same setting: for `Cl.NCC1(COc2cnc(F)c(-c3ccc(Cl)cc3)c2)CC1` the value was 55 to 60 °C. The same measure, in the same setting: to `Cl.NCC1(COc2cnc(F)c(-c3cccc(Cl)c3)c2)CC1` belongs 126 to 130 °C; to `CNC1(COc2cnc(F)c(-c3ccc(C#N)cc3)c2)CC1.Cl`, 90 to 105 °C; to `CNC1(COc2cnc(F)c(-c3cccc(C#N)c3)c2)CC1.Cl`, 211 to 215 °C.

`Cl.NCC1(COc2cnc(Cl)c(-c3cccc([N+](=O)[O-])c3)c2)CC1` gave a melting point of 229 to 232 °C.

`CNC1(COc2cnc(Cl)c(-c3ccc(SC)cc3)c2)CC1.Cl.Cl` returned a melting point of 144 to 148 °C. For the compound `COc1ccc(-c2cncc(OCC3(CN)CC3)c2)cc1.Cl.Cl`, the melting point lay in the range of 215 to 220 °C. The same measure, in the same setting: for `CCc1ccc(-c2cc(OCC3(CN)CC3)cnc2Cl)cc1.Cl.Cl` the value was 112 to 114 °C.

For the compound `Cc1ccccc1-c1cc(OCC2(CN)CC2)cnc1Cl.Cl`, the melting point is 130 to 132 °C. Regarding `Cc1cccc(-c2cc(OCC3(CN)CC3)cnc2Cl)c1.Cl`, the melting point is 152 to 154 °C. Same read-out and setting: for `Cl.NCC1(COc2cnc(Cl)c(-c3cccc(Cl)c3)c2)CC1` the value was 182 to 184 °C; for `CNC1(COc2cnc(Cl)c(-c3cccc(C#N)c3)c2)CC1.Cl`, 228 to 232 °C. With `COc1cc(-c2cc(OCC3(CN)CC3)cnc2Cl)cc(OC)c1OC.Cl`, the melting point was in the range of 138 to 140 °C. The compound `Cl.NCC1(COc2cnc(Cl)c(-c3cc(C(F)(F)F)cc(C(F)(F)F)c3)c2)CC1` had a melting point of 182 to 188 °C.

As for `CNC1(COc2cnc(Cl)c(-c3cc(F)ccc3F)c2)CC1.Cl`, the melting point is 140 to 142 °C. For the compound `CNC1(COc2cnc(Cl)c(-c3cc(Cl)ccc3Cl)c2)CC1.Cl`, the melting point was in the range of 140 to 142 °C. Same read-out and setting: for `CNC1(COc2cnc(Cl)c(-c3cc(Cl)cc(Cl)c3)c2)CC1.Cl` the value was 186 to 188 °C. On the same count and under the same terms, to `Cl.NCC1(COc2cnc(Cl)c(-c3c(Cl)cccc3Cl)c2)CC1` belongs 182 to 186 °C; to `CNC1(COc2cnc(Cl)c(-c3cccc(NC(C)=O)c3)c2)CC1.Cl`, 220 to 222 °C. Same read-out and setting: to `Cc1cccc(-c2cncc(OCC3(CN)CC3)c2)c1.Cl.Cl` belongs 215 to 218 °C; to `Cl.Cl.NCC1(COc2cncc(-c3cccc([N+](=O)[O-])c3)c2)CC1`, 220 to 225 °C; to `Cl.Cl.NCC1(COc2cncc(-c3cccc(Cl)c3)c2)CC1`, 230 to 235 °C. Take `Cl.Cl.NCC1(COc2cncc(-c3cccc(F)c3)c2)CC1`: the melting point lay in the range of 210 to 214 °C.

The compound `CCc1ccc(-c2cncc(OCC3(CN)CC3)c2)cc1.Cl.Cl` yielded a melting point of 197 to 200 °C.

The compound `CNC1(COc2cncc(-c3ccccc3C)c2)CC1.Cl.Cl` had a melting point of 192 to 196 °C. Still for that read-out and setting: to `Cl.Cl.NCC1(COc2cncc(-c3cc(F)ccc3F)c2)CC1` belongs 188 to 192 °C; to `CNC1(COc2cncc(-c3cc(OC)c(OC)c(OC)c3)c2)CC1.Cl`, 116 to 120 °C. `Cl.Cl.NCC1(COc2cncc(-c3cc(Cl)ccc3Cl)c2)CC1` gave a melting point of 195 to 200 °C.

For the compound `CNC1(COc2cncc(-c3cc(C(F)(F)F)cc(C(F)(F)F)c3)c2)CC1.Cl`, the melting point is 132 to 136 °C. Take `Cl.Cl.Cl.NCC1(COc2cncc(-c3cccc(N)c3)c2)CC1`: the melting point fell in the range of 185 to 190 °C. Same read-out and setting: to `Cl.Cl.NCC1(COc2cnc(F)c(-c3cccc(N)c3)c2)CC1` belongs 158 to 161 °C; to `Cc1ncc(OCC2(CN)CC2)cc1-c1cccc(N)c1.Cl.Cl.Cl`, 222 to 228 °C; to `CCOC(=O)c1ccc(-c2cc(OCC3(NC)CC3)cnc2Cl)cc1.Cl.Cl`, 146 to 148 °C. The compound `COc1ccc(-c2cc(OCC3(N)CC3)cnc2Cl)cc1.Cl.Cl` yielded a melting point of 207 to 211 °C. As for `COc1ccc(-c2cc(OCC3(N(C)C)CC3)cnc2Cl)cc1.Cl`, the melting point lay within 208 to 210 °C. On to `CNC1(COc2cnc(Cl)c(-c3ccc(C(N)=O)cc3)c2)CC1.Cl`, for which the melting point worked out at 130 °C. Regarding `Cl.Cl.NCC1(COc2cncc(-c3ccc(Cl)cc3)c2)CC1`, the melting point fell in the range of 208 to 213 °C.

For `CNC1(COc2cnc(F)c(-c3ccc(C(=O)O)cc3)c2)CC1.Cl.Cl`, the melting point lay within 211 to 215 °C. On to `Cl.Cl.NCC1(COc2cnc(Cl)c(-c3cccnc3)c2)CC1`, for which the melting point was in the range of 210 to 215 °C. The same measure, in the same setting: to `Cl.Cl.NCC1(COc2cnc(Cl)c(-c3ccncc3)c2)CC1` belongs 125 to 130 °C. `Cl.Cl.NCC1(COc2cnc(Cl)c(-c3ccc(N)cc3)c2)CC1` had a melting point of 240 to 243 °C. Still for that read-out and setting: to `Cl.Cl.NCC1(COc2cnc(F)c(-c3ccc(N)cc3)c2)CC1` belongs 225 to 230 °C; to `CNC1(COc2cnc(Cl)c(-c3ccc(O)cc3)c2)CC1.Cl.Cl`, 216 to 220 °C; to `CNC1(COc2cnc(Cl)c(-c3ccc(NC(=O)CCl)cc3)c2)CC1.Cl`, 140 to 144 °C. Still for that read-out and setting: to `CNC1(COc2cnc(Cl)c(-c3ccc(N=C=S)cc3)c2)CC1.Cl` belongs 172 to 176 °C. Still for that read-out and setting: for `Cl.Cl.NCC1(COc2cnc(Cl)c(-c3ccccc3)c2)CC1` the value was 130 to 135 °C; for `Cl.Cl.NCC1(COc2cnc(-c3ccc(Cl)cc3)c(-c3ccc(Cl)cc3)c2)CC1`, 220 to 225 °C. The compound `Cl.Cl.NCC1(COc2cnc(-c3ccc([N+](=O)[O-])cc3)c(-c3ccc([N+](=O)[O-])cc3)c2)CC1` came in with a melting point of 215 to 220 °C. The same measure, in the same setting: to `CNC1(COc2cnc(-c3ccc(C#N)cc3)c(-c3ccc(C#N)cc3)c2)CC1.Cl.Cl` belongs 205 to 208 °C. Same read-out and setting: for `Cc1ncc(OCC2(CN)CC2)cc1-c1ccc(N)cc1.Cl.Cl.Cl` the value was 245 to 250 °C; for `CNC1(CNc2cncc(-c3cccc(C(=O)O)c3)c2)CC1.Cl.Cl`, 248 to 250 °C. A word on the Ki: it is a dissociation constant, usually derived from enzyme kinetics or from competition with a known ligand. With `NCC1(COc2cnc(Cl)c(-c3ccc(F)cc3)c2)CC1` [Example 26, [1-({[6-Chloro-5-(4-fluorophenyl)pyridin-3-yl]oxy}methyl)cyclopropyl]methylamine hydrochloride], in data set [1], the Ki was determined as 0.3 nM. With “[1-({[5-(3,5-Dichlorophenyl)pyridin-3-yl]oxy}methyl)cyclopropyl]methylamine dihydrochloride [Example 52]”, the Ki in data set [1] was found to be 1.4 nM. On the same count and under the same terms, for “[1-({[5-(4-Methoxyphenyl)pyridin-3-yl]oxy}methyl)cyclopropyl]methylamine dihydrochloride [Example 11]” the value was 0.8 nM; for “[1-({[5-(4-Nitrophenyl)pyridin-3-yl]oxy}methyl)cyclopropyl]methylamine dihydrochloride [Example 6]”, 2.3 nM. Same read-out and setting: for “[1-({[6-Chloro-5-(3-fluorophenyl)pyridin-3-yl]oxy}methyl)cyclopropyl]methylamine hydrochloride [Example 32]” the value was 0.4 nM; for “[1-({[6-Chloro-5-(4-methylphenyl)pyridin-3-yl]oxy}methyl)cyclopropyl]methylamine dihydrochloride [Example 10]”, 0.7 nM.
